Measured values from PubChem BioAssay (NCI).
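Each compound was tested at five concentrations against cells in 96-well plates for 48 hours. GI50: concentration for 50% inhibition of growth. TGI denotes the concentration required for complete inhibition of growth.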

Experiments:
Assay in all cases: inhibition of tumour cell growth, NCI panel, 48 h
[1] = system: HOP-62 NSCLC
[2] = system: RXF 393 renal
[3] = system: UACC-62 melanoma
[4] = system: 786-0 renal
[5] = system: MDA-MB-468 breast
[6] = system: MDA-MB-435
[7] = system: UACC-257 melanoma
[8] = system: HT29 colon
[9] = system: KM12 colon
[10] = system: CCRF-CEM leukemia
[11] = system: MDA-MB-231 breast
[12] = system: OVCAR-5 ovarian
[13] = system: OVCAR-4 ovarian
[14] = system: SN12C renal
[15] = system: LOX IMVI melanoma
[16] = system: T-47D breast
[17] = system: MALME-3M melanoma
[18] = system: MCF7 breast
[19] = system: OVCAR-3 ovarian
[20] = system: SK-MEL-2 melanoma
[21] = system: HS 578T breast
[22] = system: SF-268 CNS
[23] = system: DU-145 prostate
[24] = system: SK-MEL-5 melanoma
[25] = system: MOLT-4 leukemia
[26] = system: NCI-H460 lung
[27] = system: NCI-H23 lung
[28] = system: UO-31 renal
[29] = system: ACHN renal
[30] = system: NCI-H226 lung
[31] = system: SK-MEL-28 melanoma
[32] = system: M14 melanoma
[33] = system: SW-620 colon
[34] = system: A549 NSCLC
[35] = system: TK-10 renal
[36] = system: SF-539 CNS
[37] = system: SNB-75 CNS
[38] = system: NCI-H522 lung
[39] = system: A498 renal
[40] = system: SK-OV-3 ovarian
[41] = system: HL-60(TB) leukemia
[42] = system: BT-549 breast
[43] = system: SNB-19 CNS
[44] = system: IGROV1 ovarian
[45] = system: SR leukemia
[46] = system: HCT-15 colon
[47] = system: HCT-116 colon
[48] = system: CAKI-1 renal
[49] = system: HCC-2998 colon
[50] = system: SF-295 CNS
[51] = system: K-562 leukemia
[52] = system: OVCAR-8 ovarian
[53] = system: COLO 205 colon
[54] = system: RPMI-8226 leukemia
[55] = system: EKVX NSCLC
[56] = system: HOP-92 NSCLC
[57] = system: PC-3 prostate
[58] = system: U251 CNS
[59] = system: NCI/ADR-RES ovarian

Cn1cc(-c2cc(N)n3nc(-c4c[nH]c5ccc(Br)cc45)cc3n2)c2cc(Br)cnc21
GI50 [1]: 1.68 µM | TGI [1]: 3.34 µM | GI50 [2]: 1.89 µM | TGI [2]: 3.69 µM | GI50 [3]: 1.6 µM | TGI [3]: 3.07 µM | GI50 [4]: 1.64 µM | TGI [4]: 3.13 µM | GI50 [5]: 1.36 µM | TGI [5]: 2.77 µM | GI50 [6]: 1.71 µM | TGI [6]: 3.21 µM | GI50 [7]: 2 µM | TGI [7]: 4.31 µM | GI50 [8]: 1.97 µM | TGI [8]: 3.84 µM | GI50 [9]: 1.59 µM | TGI [9]: 3.16 µM | GI50 [10]: 1.61 µM | TGI [10]: 4.26 µM | GI50 [11]: 1.78 µM | TGI [11]: 3.54 µM | GI50 [12]: 2.03 µM | TGI [12]: 4.44 µM | GI50 [13]: 1.95 µM | TGI [13]: 3.93 µM | GI50 [14]: 1.72 µM | TGI [14]: 3.36 µM | GI50 [15]: 1.7 µM | TGI [15]: 3.29 µM | GI50 [16]: 1.8 µM | TGI [16]: 4.33 µM | GI50 [17]: 1.89 µM | TGI [17]: 3.52 µM | GI50 [18]: 1.8 µM | TGI [18]: 3.63 µM | GI50 [19]: 1.67 µM | TGI [19]: 3.13 µM | GI50 [20]: 1.79 µM | TGI [20]: 3.74 µM | GI50 [21]: 2.29 µM | TGI [21]: 5.36 µM | GI50 [22]: 2.25 µM | TGI [22]: 5.71 µM | GI50 [23]: 1.82 µM | TGI [23]: 3.53 µM | GI50 [24]: 2.08 µM | TGI [24]: 4.49 µM | GI50 [25]: 2.11 µM | TGI [25]: 10.6 µM | GI50 [26]: 1.96 µM | TGI [26]: 4.03 µM | GI50 [27]: 1.76 µM | TGI [27]: 3.6 µM | GI50 [28]: 1.62 µM | TGI [28]: 3.36 µM | GI50 [29]: 1.66 µM | TGI [29]: 3.12 µM | GI50 [30]: 2.51 µM | TGI [30]: 7.34 µM | GI50 [31]: 1.82 µM | TGI [31]: 3.64 µM | GI50 [32]: 1.69 µM | TGI [32]: 3.55 µM | GI50 [33]: 1.88 µM | TGI [33]: 3.74 µM | GI50 [34]: 1.84 µM | TGI [34]: 3.87 µM | GI50 [35]: 1.78 µM | TGI [35]: 3.99 µM | GI50 [36]: 1.64 µM | TGI [36]: 3.16 µM | GI50 [37]: 1.46 µM | TGI [37]: 3.24 µM | GI50 [38]: 1.7 µM | TGI [38]: 3.56 µM | GI50 [39]: 1.55 µM | TGI [39]: 3.42 µM | GI50 [40]: 2.54 µM | TGI [40]: 7.27 µM | GI50 [41]: 1.79 µM | TGI [41]: 4.33 µM | GI50 [42]: 2.19 µM | TGI [42]: 4.36 µM | GI50 [43]: 2.15 µM | TGI [43]: 4.76 µM | GI50 [44]: 1.96 µM | TGI [44]: 4.11 µM | GI50 [45]: 1.93 µM | TGI [45]: 5.87 µM | GI50 [46]: 1.69 µM | TGI [46]: 3.8 µM | GI50 [47]: 1.91 µM | TGI [47]: 4.25 µM | GI50 [48]: 1.49 µM | TGI [48]: 3.77 µM | GI50 [49]: 1.76 µM | TGI [49]: 3.24 µM | GI50 [50]: 1.88 µM | TGI [50]: 4.29 µM | GI50 [51]: 1.89 µM | TGI [51]: 5.88 µM | GI50 [52]: 2.01 µM | TGI [52]: 4.22 µM | GI50 [53]: 1.82 µM | TGI [53]: 3.36 µM | GI50 [54]: 2.23 µM | TGI [54]: 7.8 µM

Cc1ccc(-c2nc3ccc(C(=O)N=Nc4c(O)[nH]c5ccc(Cl)cc45)cc3[nH]2)cc1
GI50 [1]: 78.4 µM | TGI [1]: > 100 µM | GI50 [2]: > 100 µM | TGI [2]: > 100 µM | GI50 [3]: > 100 µM | TGI [3]: > 100 µM | GI50 [4]: 20.9 µM | TGI [4]: 65.4 µM | GI50 [55]: > 100 µM | TGI [55]: > 100 µM | GI50 [5]: 5.28 µM | TGI [5]: 21.8 µM | GI50 [6]: 10.1 µM | TGI [6]: 94.9 µM | GI50 [7]: > 100 µM | TGI [7]: > 100 µM | GI50 [8]: 17.6 µM | TGI [8]: > 100 µM | GI50 [9]: > 100 µM | TGI [9]: > 100 µM | GI50 [10]: 5.77 µM | TGI [10]: > 100 µM | GI50 [11]: 10.7 µM | TGI [11]: 40.3 µM | GI50 [56]: 72.6 µM | TGI [56]: > 100 µM | GI50 [12]: 25.5 µM | TGI [12]: > 100 µM | GI50 [13]: 15 µM | TGI [13]: 51.3 µM | GI50 [14]: 38.9 µM | TGI [14]: > 100 µM | GI50 [15]: 4.81 µM | TGI [15]: 18.9 µM | GI50 [16]: 44.5 µM | TGI [16]: > 100 µM | GI50 [17]: 15.6 µM | TGI [17]: 43.8 µM | GI50 [18]: 5.03 µM | TGI [18]: 47.4 µM | GI50 [19]: 7.29 µM | TGI [19]: 74.4 µM | GI50 [20]: > 100 µM | TGI [20]: > 100 µM | GI50 [21]: 31.2 µM | TGI [21]: > 100 µM | GI50 [22]: 24.2 µM | TGI [22]: > 100 µM | GI50 [23]: 5.57 µM | TGI [23]: 88.4 µM | GI50 [24]: > 100 µM | TGI [24]: > 100 µM | GI50 [57]: 13.4 µM | TGI [57]: 39.2 µM | GI50 [25]: 4.12 µM | TGI [25]: > 100 µM | GI50 [26]: 8.67 µM | TGI [26]: > 100 µM | GI50 [27]: 6.63 µM | TGI [27]: 28.9 µM | GI50 [28]: > 100 µM | TGI [28]: > 100 µM | GI50 [29]: > 100 µM | TGI [29]: > 100 µM | GI50 [30]: > 100 µM | TGI [30]: > 100 µM | GI50 [31]: 36.1 µM | TGI [31]: > 100 µM | GI50 [58]: 25.3 µM | TGI [58]: > 100 µM | GI50 [32]: 57.8 µM | TGI [32]: > 100 µM | GI50 [33]: 3.3 µM | TGI [33]: 26 µM | GI50 [34]: 56.8 µM | TGI [34]: > 100 µM | GI50 [35]: > 100 µM | TGI [35]: > 100 µM | GI50 [36]: > 100 µM | TGI [36]: > 100 µM | GI50 [37]: 66.5 µM | TGI [37]: > 100 µM | GI50 [38]: 4.3 µM | TGI [38]: 21.3 µM | GI50 [39]: > 100 µM | TGI [39]: > 100 µM | GI50 [40]: > 100 µM | TGI [40]: > 100 µM | GI50 [41]: > 100 µM | TGI [41]: > 100 µM | GI50 [42]: 96.3 µM | TGI [42]: > 100 µM | GI50 [43]: 30.1 µM | TGI [43]: > 100 µM | GI50 [59]: > 100 µM | TGI [59]: > 100 µM | GI50 [44]: 81.9 µM | TGI [44]: > 100 µM | GI50 [45]: > 100 µM | TGI [45]: > 100 µM | GI50 [46]: > 100 µM | TGI [46]: > 100 µM | GI50 [47]: 16 µM | TGI [47]: > 100 µM | GI50 [48]: > 100 µM | TGI [48]: > 100 µM | GI50 [49]: 18.7 µM | TGI [49]: > 100 µM | GI50 [50]: > 100 µM | TGI [50]: > 100 µM | GI50 [51]: 8.85 µM | TGI [51]: > 100 µM | GI50 [52]: > 100 µM | TGI [52]: > 100 µM | GI50 [53]: 24.6 µM | TGI [53]: > 100 µM | GI50 [54]: 67.7 µM | TGI [54]: > 100 µM
